Data on two compounds can be found in paper PMC6328587 (Nature Communications, 2019).

For orientation: DC50 means the concentration giving 50% degradation. By Dmax is commonly meant the greatest extent of degradation seen.

Where two headings read alike, the source gives them in different places.

In assay [1] the target is T1, p38α:PROTAC:VHL ternary complex (Homo sapiens, UniProt P40337+Q16539).
T1 construct: The plasmid contains an N-terminal His6 tag and encodes a region spanning amino acids 2–360 of the human p38α kinase; made in house; host or cells: E. coli BL21-CodonPlus(DE3)-RIPL (p38α); E. coli BL21(DE3) (GST-VBC)
T1 sequence (Q16539 2-360 limits assumed): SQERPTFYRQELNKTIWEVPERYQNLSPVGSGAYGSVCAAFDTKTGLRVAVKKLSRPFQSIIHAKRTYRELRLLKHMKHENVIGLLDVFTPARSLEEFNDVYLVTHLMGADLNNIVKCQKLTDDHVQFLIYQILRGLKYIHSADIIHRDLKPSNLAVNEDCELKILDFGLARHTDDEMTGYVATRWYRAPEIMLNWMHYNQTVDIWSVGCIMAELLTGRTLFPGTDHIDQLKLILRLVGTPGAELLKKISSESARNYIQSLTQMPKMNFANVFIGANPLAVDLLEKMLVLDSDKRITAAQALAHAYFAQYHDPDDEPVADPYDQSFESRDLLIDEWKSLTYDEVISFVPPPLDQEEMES
T1 sequence (P40337 whole entry, the tested form may be a part): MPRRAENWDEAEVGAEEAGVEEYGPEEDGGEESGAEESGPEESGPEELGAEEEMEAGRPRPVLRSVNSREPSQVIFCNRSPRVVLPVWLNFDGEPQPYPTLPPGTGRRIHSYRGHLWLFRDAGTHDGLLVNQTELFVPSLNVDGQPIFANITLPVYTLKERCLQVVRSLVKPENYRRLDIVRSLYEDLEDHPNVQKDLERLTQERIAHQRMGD
T1 sequence (Q15370 whole entry partner, the tested form may be a part): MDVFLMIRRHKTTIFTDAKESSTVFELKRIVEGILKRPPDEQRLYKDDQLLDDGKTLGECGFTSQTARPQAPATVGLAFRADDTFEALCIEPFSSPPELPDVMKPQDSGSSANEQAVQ
T1 sequence (Q15369 whole entry partner, the tested form may be a part): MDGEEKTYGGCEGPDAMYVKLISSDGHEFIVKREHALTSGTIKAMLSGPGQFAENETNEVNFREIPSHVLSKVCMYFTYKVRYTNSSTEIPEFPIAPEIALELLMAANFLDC
The experiment in a line: In vitro ternary complex pull-down, GST-VBC bait, purified p38α. The format is binding. The settings on record: all concentrations tested. The procedure: Glutathione Sepharose 4B (Glutathione-conjugated beads in a slurry containing 20% ethanol) were washed twice with 1X wash buffer (50 mM HEPES pH 7.5, 150 mM NaCl, 1 mM DTT, 0.01% NP40, 5 mM MgCl2, 10% Glycerol) and then blocked for 1 h at room temperature with 10% bovine serum albumin (BSA) in wash buffer. The beads were then washed again three times with wash buffer and then purified GST-VBC (stable form of VHL complexed with EloB/EloC, described above) was immobilized for 1 h at 4 °C at 3.6 pmole µL^–1 of beads. The beads were then washed three times with wash buffer, resuspended, divided into two equal volumes, and p38α or p38δ protein was added. The bead:p38 mixture was then aliquoted to separate tubes and PROTAC was added at the indicated concentration (PROTACs were intermediately diluted in 10% DMSO and 0.25% CHAPS). This mixture was incubated at 4 °C for 2 h. The beads were washed three times with 10 column volumes of wash buffer and then eluted with SDS loading buffer at 75 °C for 10 min.

A further assay deals with T2, p38δ (Homo sapiens, UniProt O15264).
T2 construct: endogenous in cells; host or cells: MDA-MB-231
T2 sequence (O15264 1-365): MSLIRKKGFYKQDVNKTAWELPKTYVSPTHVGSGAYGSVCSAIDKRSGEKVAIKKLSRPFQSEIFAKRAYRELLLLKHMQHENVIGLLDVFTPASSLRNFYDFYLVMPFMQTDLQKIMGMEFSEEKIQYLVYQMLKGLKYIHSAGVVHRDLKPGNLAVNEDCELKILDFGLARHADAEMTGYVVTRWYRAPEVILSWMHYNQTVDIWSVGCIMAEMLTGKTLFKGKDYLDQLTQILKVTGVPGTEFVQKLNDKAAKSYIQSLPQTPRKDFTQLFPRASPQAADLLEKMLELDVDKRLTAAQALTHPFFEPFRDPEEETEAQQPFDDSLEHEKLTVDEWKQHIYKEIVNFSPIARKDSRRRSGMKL
The experiment in a line: PROTAC-induced p38δ degradation, western blot in MDA-MB-231 cells. The format is cell-based. As to the method:
MDA-MB-231 and HeLa cells were obtained from the American Type Culture Collection (ATCC), cultured in RPMI-1640 medium (1 × ) and Dulbecco’s modified Eagle’s medium (DMEM; 1 × ), respectively, containing 10% fetal bovine serum and 1% penicillin–streptomycin and grown in a humidified incubator at 37 °C and 5% CO2.
[…] once with ice-cold PBS (1 × ), followed by lysis in buffer containing 25 mM Tris [pH 7.5], 0.25% sodium deoxycholate, 1% Triton X-100, supplemented with 1X protease inhibitor cocktail (Roche), and phosphatase inhibitors (10 mM NaF, 1 mM Na3VO4, and 20 mM β-glycerophosphate), unless otherwise noted. Lysates were spun at 14,000 × g for 10 min at 4 °C and supernatant was evaluated for protein content using a Pierce BCA Protein Assay (ThermoFisher Scientific). In all experiments, 25–50 μg of protein was loaded onto 10% SDS-PAGE gels or 4–20% Criterion TGX precast gradient gels (Bio-Rad), transferred to nitrocellulose membranes, and probed with the specified antibodies overnight at 4 °C in 1X TBS-Tween (Tris-buffered saline plus 0.02% Tween 20) containing 5% non-fat milk. Immunoblots were visualized using a Bio-Rad ChemiDoc imaging instrument and subsequently processed and quantified using the accompanying Bio-Rad ImageLab software. See Supplementary Figure 8 for uncropped scans of western blots shown in the main text figures.
Western blot data in Figs. 2, 6, and Supplementary Figures 2, 3 were quantified by using the band feature in Image Lab (Bio-Rad). The p38 values were normalized to the α-tubulin signal to account for differences in protein load, and PROTAC-treated normalized values were expressed as a % of the vehicle-treated (no PROTAC) value, which itself was defined as 100% p38 protein level. […] The sigmoidal fit established both the full extent of degradation, or Dmax at the bottom asymptote of the curve, as well as the DC50, which is the inflection point at which 50% of the total degradation observed was reached.

The target of assay [2] is T3, VHL:PROTAC:p38α ternary complex (Homo sapiens, UniProt P40337+Q16539).
T3 construct: The plasmid contains an N-terminal His6 tag and encodes a region spanning amino acids 2–360 of the human p38α kinase; made in house; host or cells: E. coli BL21-CodonPlus(DE3)-RIPL (p38α); E. coli BL21(DE3) (GST-VBC)
T3 sequence (Q16539 2-360 limits assumed): as the sequence (Q16539 2-360 limits assumed) above
T3 sequence (P40337 whole entry, the tested form may be a part): as the sequence (P40337 whole entry, the tested form may be a part) above
T3 sequence (Q15370 whole entry partner, the tested form may be a part): as the sequence (Q15370 whole entry partner, the tested form may be a part) above
T3 sequence (Q15369 whole entry partner, the tested form may be a part): as the sequence (Q15369 whole entry partner, the tested form may be a part) above
The experiment in a line: AlphaLISA ternary complex assay. The format is binding. The settings on record: His-p38α and GST-VBC 150 nM, increasing PROTAC. As to the method: Assays were performed at room temperature and plates sealed with transparent film between addition of reagents to prevent well contamination. All reagents were diluted in 50 mM HEPES pH 7.5, 50 mM NaCl, 69 µM Brij-35, and 0.1 mg mL^−1 BSA. Recombinant GST-VBC was mixed with His6-p38α and PROTAC (diluted one-in-three from 6× stock) to a final volume of 15 μL per well in a OptiPlate-384 well microplate (PerkinElmer) and incubated for 30 min. VBC and p38α were kept at a constant final concentration of 150 nM. In all, 7.5 μL of Anti-6xHis AlphaLISA Acceptor beads (PerkinElmer) were added to each well and plates were incubated for 15 min in the dark. In total, 7.5 μL of Alpha Glutathione Donor beads (PerkinElmer) were added to each well and plates were incubated for 45 min in the dark. Plates were read on a Synergy 2 microplate reader using the Gen5 imager software (BioTek Instruments) with an excitation wavelength of 680 nm and emission wavelength of 615 nm. Intensity values were plotted in Graphpad Prism with PROTAC concentration values represented on a log10 scale.

The mark [3] stands for this setting: 0.025-5.0 µM survey, biological duplicates, ± one s.d., Supplementary Table 1.
The mark [4] stands for this setting: 0.025-5.0 µM survey, ± one s.d., Supplementary Table 1, read-out: Dmax p38δ (maximum percentage of degradation).
Where [5] appears, read: wider dose response 1 nM-100 µM, Supplementary Figure 3, read-out: Dmax p38δ.

Consider `COc1cc2c(Oc3ccc(NC(=O)C4(C(=O)Nc5ccc(F)cc5)CC4)cc3F)ccnc2cc1OCCOCCOCCOc1cc(-c2scnc2C)ccc1CNC(=O)[C@@H]1C[C@@H](O)CN1C(=O)[C@H](C(C)C)N1Cc2ccccc2C1=O` [SJFδ], for which the “enrichment of purified p38α on GST-VBC bait” value in assay [1] is on record as “no detectable enrichment”. Also, the “p38δ downregulation after pre-treatment with 1 µM epoxomicin or 1 µM MLN4924” value on p38δ (250 nM PROTAC, 6 h) is on record as “completely rescued”. Further, the DC50 at p38δ (setting [3]) is 79.2 ± 28 nM; on p38δ (wider dose response 1 nM-100 µM, Supplementary Figure 3) it was 46.2 ± 9.85 nM. For the same compound, the values for the Dmax at p38δ (setting [4]) and on p38δ (setting [5]) were 98.4 ± 6.6% and 99.4 ± 3.31%, respectively. The “hook effect in p38δ degradation” value at p38δ (up to 100 µM) was “no hook effect”. The “p38α:PROTAC:VHL ternary complex formation (AlphaLISA)” value in assay [2] was “no such ternary species is detectable”.
For the compound `COc1cc2c(Oc3ccc(NC(=O)C4(C(=O)Nc5ccc(F)cc5)CC4)cc3F)ccnc2cc1OCCCCOCCCCOCC(=O)N[C@H](C(=O)N1C[C@H](O)C[C@H]1C(=O)NCc1ccc(-c2scnc2C)cc1)C(C)(C)C` [SJFα], the “enrichment of purified p38α on GST-VBC bait” value in assay [1] is given as “substantial enrichment”. The compound also had a DC50 on p38δ (setting [3]) of 1160 ± 2470 nM. Also, the values for the Dmax on p38δ (setting [4]) and at p38δ (setting [5]) were 25.1 ± 22.7% and 18%, respectively. Besides, the “p38α:PROTAC:VHL ternary complex formation (AlphaLISA)” value in assay [2] is given as “facilitates a VHL:PROTAC:p38α ternary complex”.
